# Measured values reported in patent US20100267561A1, “HERBICIDAL PYRIDAZINONE DERIVATIVES” (priority 2007, published 2010).
# How the values were obtained:
# Experiment in all cases: Test B pre-/postemergence plant response
# Type in all cases: in vivo
# [1] = tested on: blackgrass (Alopecurus myosuroides)
# How it was run: (§1)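 Seeds were sown and sprayed preemergence, while plants at 2 to 18 cm (1- to 4-leaf stage) got postemergence sprays. Compounds were formulated in a non-phytotoxic solvent mixture with surfactant. After 13 to 15 days in a greenhouse, injury was rated visually against untreated controls, 0 (no effect) to 100 (complete control).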
# [2] = tested on: catchweed bedstraw (Galium aparine); conditions: Preemergence, scale 0 to 100
# How it was run: as §1
# [3] = tested on: common (oilseed) sunflower (Helianthus annuus); conditions: Preemergence
# How it was run: as §1
# corn (Zea mays) = tested on: corn (Zea mays)
# How it was run: as §1
# [4] = tested on: downy bromegrass (Bromus tectorum)
# How it was run: as §1
# [5] = tested on: eastern black (E.B.) nightshade (Solanum ptycanthum); conditions: Preemergence
# How it was run: as §1
# [6] = tested on: giant foxtail (Setaria faberii)
# How it was run: as §1
# [7] = tested on: green foxtail (Setaria viridis)
# How it was run: as §1
# [8] = tested on: johnsongrass (Sorghum halepense)
# How it was run: as §1
# kochia (Kochia scoparia) = tested on: kochia (Kochia scoparia)
# How it was run: as §1
# [9] = tested on: morningglory (Ipomoea coccinea)
# How it was run: as §1
# [10] = tested on: pigweed (Amaranthus retroflexus)
# How it was run: as §1
# [11] = tested on: surinam grass (Brachiaria decumbens)
# How it was run: as §1
# [12] = tested on: woolly cupgrass (Eriochloa villosa)
# How it was run: as §1
# [13] = Postemergence, 31 g ai/ha, scale 0 to 100, 0 no effect, 100 complete control
# [14] = Postemergence, 62 g ai/ha, scale 0 to 100
# [15] = Postemergence, 125 g ai/ha, scale 0 to 100
# [16] = Postemergence, 250 g ai/ha, scale 0 to 100
# [17] = Preemergence, 31 g ai/ha, 0 to 100 scale, 0 no effect, 100 complete control
# [18] = Preemergence, 62 g ai/ha, scale 0 to 100
# [19] = Preemergence, 125 g ai/ha, scale 0 to 100
# [20] = 31 g ai/ha, 0 to 100 scale, 0 no effect, 100 complete control
# [21] = Preemergence, 250 g ai/ha, scale 0 to 100
substance,measurement,setting,value
"5-[3-(4-chlorophenyl)-5-methyl-1H-pyrazol-1-yl]-1,6-dihydro-1-methyl-6-oxo-4-pyridazinyl-1-methylethyl carbonate [Compound 7]",Blackgrass plant response rating,"[1]; 250 g ai/ha, preemergence, 0-100 scale",100
same,"Plant response rating, Blackgrass",[1]; [13],85
same,"Plant response rating, Blackgrass",[1]; [14],90
same,"Plant response rating, Blackgrass",[1]; [15],100
same,"Plant response rating, Blackgrass",[1]; [16],100
same,"Plant response rating, Blackgrass",[1]; [17],70
same,"Plant response rating, Blackgrass",[1]; [18],85
same,"Plant response rating, Blackgrass",[1]; [19],100
same,"Plant response rating, Galium",[2]; 62 g ai/ha,0
same,"Plant response rating, Galium",[2]; 125 g ai/ha,80
same,"Plant response rating, Galium",[2]; 250 g ai/ha,80
same,"Plant response rating, Sunflower",[3]; [20],0
same,"Plant response rating, Sunflower","[3]; 62 g ai/ha, scale 0 to 100",0
same,"Plant response rating, Sunflower","[3]; 125 g ai/ha, scale 0 to 100",0
same,"Plant response rating, Sunflower","[3]; 250 g ai/ha, scale 0 to 100",0
same,"Plant response rating, Corn",corn (Zea mays); [13],90
same,"Plant response rating, Corn",corn (Zea mays); [14],90
same,"Plant response rating, Corn",corn (Zea mays); [15],90
same,"Plant response rating, Corn",corn (Zea mays); [16],90
same,"Plant response rating, Corn",corn (Zea mays); [17],90
same,"Plant response rating, Corn",corn (Zea mays); [18],95
same,"Plant response rating, Corn",corn (Zea mays); [19],98
same,"Plant response rating, Corn",corn (Zea mays); [21],100
same,"Plant response rating, Bromegrass, Downy",[4]; [13],0
same,"Plant response rating, Bromegrass, Downy",[4]; [14],0
same,"Plant response rating, Bromegrass, Downy",[4]; [15],0
same,"Plant response rating, Bromegrass, Downy",[4]; [16],0
same,"Plant response rating, Bromegrass, Downy",[4]; [17],35
same,"Plant response rating, Bromegrass, Downy",[4]; [18],35
same,"Plant response rating, Bromegrass, Downy",[4]; [19],60
same,"Plant response rating, Bromegrass, Downy","[4]; Preemergence, 250 g ai/ha, scale 0 to 100 (0 no effect, 100 complete control)",60
same,"Plant response rating, Nightshade, E. B.",[5]; [20],30
same,"Plant response rating, Nightshade, E. B.","[5]; 62 g ai/ha, scale 0 to 100",30
same,"Plant response rating, Nightshade, E. B.","[5]; 125 g ai/ha, scale 0 to 100",100
same,"Plant response rating, Nightshade, E. B.","[5]; 250 g ai/ha, scale 0 to 100",100
same,"Plant response rating, Foxtail, Giant",[6]; [13],98
same,"Plant response rating, Foxtail, Giant",[6]; [14],100
same,"Plant response rating, Foxtail, Giant",[6]; [15],100
same,"Plant response rating, Foxtail, Giant",[6]; [16],100
same,"Plant response rating, Foxtail, Giant",[6]; [17],100
same,"Plant response rating, Foxtail, Giant",[6]; [18],100
same,"Plant response rating, Foxtail, Giant",[6]; [19],100
same,"Plant response rating, Foxtail, Giant",[6]; [21],100
same,"Plant response rating, Foxtail, Green",[7]; [13],75
same,"Plant response rating, Foxtail, Green",[7]; [14],100
same,"Plant response rating, Foxtail, Green",[7]; [15],100
same,"Plant response rating, Foxtail, Green",[7]; [16],100
same,"Plant response rating, Foxtail, Green",[7]; [17],100
same,"Plant response rating, Foxtail, Green",[7]; [18],100
same,"Plant response rating, Foxtail, Green",[7]; [19],100
same,"Plant response rating, Foxtail, Green",[7]; [21],100
same,"Plant response rating, Johnsongrass",[8]; [15],0
same,"Plant response rating, Johnsongrass",[8]; [16],0
same,"Plant response rating, Johnsongrass",[8]; [17],75
same,"Plant response rating, Johnsongrass",[8]; [18],98
same,"Plant response rating, Johnsongrass",[8]; [19],100
same,"Plant response rating, Johnsongrass",[8]; [21],100
same,"Plant response rating, Kochia",kochia (Kochia scoparia); [13],0
same,"Plant response rating, Kochia",kochia (Kochia scoparia); [14],0
same,"Plant response rating, Kochia",kochia (Kochia scoparia); [15],0
same,"Plant response rating, Kochia",kochia (Kochia scoparia); [16],10
same,"Plant response rating, Kochia",kochia (Kochia scoparia); [17],0
same,"Plant response rating, Kochia",kochia (Kochia scoparia); [18],0
same,"Plant response rating, Kochia",kochia (Kochia scoparia); [19],0
same,"Plant response rating, Kochia",kochia (Kochia scoparia); [21],0
same,"Plant response rating, Morningglory",[9]; [13],0
same,"Plant response rating, Morningglory",[9]; [14],0
same,"Plant response rating, Morningglory",[9]; [15],0
same,"Plant response rating, Morningglory",[9]; [16],0
same,"Plant response rating, Morningglory",[9]; [17],0
same,"Plant response rating, Morningglory",[9]; [18],0
same,"Plant response rating, Morningglory",[9]; [19],0
same,"Plant response rating, Morningglory",[9]; [21],0
same,"Plant response rating, Pigweed",[10]; [13],0
same,"Plant response rating, Pigweed",[10]; [14],0
same,"Plant response rating, Pigweed",[10]; [15],0
same,"Plant response rating, Pigweed",[10]; [16],20
same,"Plant response rating, Pigweed",[10]; [17],85
same,"Plant response rating, Pigweed",[10]; [18],100
same,"Plant response rating, Pigweed",[10]; [19],100
same,"Plant response rating, Surinam Grass",[11]; [13],100
same,"Plant response rating, Surinam Grass",[11]; [14],100
same,"Plant response rating, Surinam Grass",[11]; [15],100
same,"Plant response rating, Surinam Grass",[11]; [16],100
same,"Plant response rating, Surinam Grass",[11]; [17],98
same,"Plant response rating, Surinam Grass",[11]; [18],100
same,"Plant response rating, Surinam Grass",[11]; [19],100
same,"Plant response rating, Surinam Grass",[11]; [21],100
same,"Plant response rating, Cupgrass, Woolly",[12]; [13],100
same,"Plant response rating, Cupgrass, Woolly",[12]; [14],100
same,"Plant response rating, Cupgrass, Woolly",[12]; [15],100
same,"Plant response rating, Cupgrass, Woolly",[12]; [16],100
same,"Plant response rating, Cupgrass, Woolly",[12]; [17],70
same,"Plant response rating, Cupgrass, Woolly",[12]; [18],70
same,"Plant response rating, Cupgrass, Woolly",[12]; [19],85
same,"Plant response rating, Cupgrass, Woolly",[12]; [21],100
